System: MDCK-II
Assay: Induction of claudin-1 mediated tight junction opening in MDCK-II cells assessed as increase in FITC-conjugated dextran incubated for 5 hrs relative to control
Format: cell-based
Set-up: concentration or dose not given beside the values
Conditions: Canis lupus familiaris

| Structure (SMILES) | Activity [%] | Activity (filed as opener) [%] |
| --- | --- | --- |
| CCCCCCC[C@@H](O)CC(=O)N[C@@H](CC(C)C)C(=O)N[C@H](CCC(=O)O)C(=O)N[C@H](CCC(N)=O)C(=O)N[C@@H](C(=O)N[C@H](CC(C)C)C(=O)N[C@@H](CCC(N)=O)C(=O)N[C@@H]1COC(=O)[C@H]([C@@H](C)CC)NC(=O)[C@@H](CCC(N)=O)NC(=O)[C@H](C)NC(=O)[C@H](CC(C)C)NC(=O)[C@@H](CCC(N)=O)NC(=O)[C@@H](CC(C)C)NC(=O)[C@@H](C(C)C)NC1=O)C(C)C | 9.8 | – |
| CCCCCCC[C@@H](O)CC(=O)N[C@@H](CC(C)C)C(=O)N[C@H](CCC(=O)O)C(=O)N[C@H](CCC(N)=O)C(=O)N[C@@H](C(=O)N[C@H](C)C(=O)N[C@@H](CCC(N)=O)C(=O)N[C@@H]1COC(=O)[C@H]([C@@H](C)CC)NC(=O)[C@@H](CCC(N)=O)NC(=O)[C@H](CC(C)C)NC(=O)[C@H](CC(C)C)NC(=O)[C@@H](CCC(N)=O)NC(=O)[C@@H](CC(C)C)NC(=O)[C@@H](C(C)C)NC1=O)C(C)C | 9.2 | – |
| CCCCCCC[C@@H](O)CC(=O)N[C@@H](CC(C)C)C(=O)N[C@H](C)C(=O)N[C@H](CCC(N)=O)C(=O)N[C@@H](C(=O)N[C@H](CC(C)C)C(=O)N[C@@H](CCC(N)=O)C(=O)N[C@@H]1COC(=O)[C@H]([C@@H](C)CC)NC(=O)[C@@H](CCC(N)=O)NC(=O)[C@H](CC(C)C)NC(=O)[C@H](CC(C)C)NC(=O)[C@@H](CCC(N)=O)NC(=O)[C@@H](CC(C)C)NC(=O)[C@@H](C(C)C)NC1=O)C(C)C | 30.7 | – |
| CCCCCCC[C@@H](O)CC(=O)N[C@@H](CC(C)C)C(=O)N[C@H](CCC(=O)O)C(=O)N[C@H](CCC(N)=O)C(=O)N[C@@H](C(=O)N[C@H](CC(C)C)C(=O)N[C@@H](CCC(N)=O)C(=O)N[C@@H]1COC(=O)[C@H]([C@@H](C)CC)NC(=O)[C@@H](CCC(N)=O)NC(=O)[C@H](CC(C)C)NC(=O)[C@H](CC(C)C)NC(=O)[C@@H](C)NC(=O)[C@@H](CC(C)C)NC(=O)[C@@H](C(C)C)NC1=O)C(C)C | – | 85.3 |
| CCCCCCC[C@@H](O)CC(=O)N[C@@H](CC(C)C)C(=O)N[C@H](CCC(=O)O)C(=O)N[C@H](CCC(N)=O)C(=O)N[C@H](C)C(=O)N[C@H](CC(C)C)C(=O)N[C@@H](CCC(N)=O)C(=O)N[C@@H]1COC(=O)[C@H]([C@@H](C)CC)NC(=O)[C@@H](CCC(N)=O)NC(=O)[C@H](CC(C)C)NC(=O)[C@H](CC(C)C)NC(=O)[C@@H](CCC(N)=O)NC(=O)[C@@H](CC(C)C)NC(=O)[C@@H](C(C)C)NC1=O | 14.4 | – |
| CC[C@H](C)[C@@H]1NC(=O)[C@@H](CCC(N)=O)NC(=O)[C@H](CC(C)C)NC(=O)[C@H](CC(C)C)NC(=O)[C@@H](CCC(N)=O)NC(=O)[C@@H](CC(C)C)NC(=O)[C@@H](C(C)C)NC(=O)[C@H](NC(=O)[C@H](CCC(N)=O)NC(=O)[C@@H](CC(C)C)NC(=O)[C@H](NC(=O)[C@@H](CCC(N)=O)NC(=O)[C@@H](CCC(=O)O)NC(=O)[C@H](CC(C)C)NC(=O)CCO)C(C)C)COC1=O | -3 | – |
| CC[C@H](C)[C@@H]1NC(=O)[C@@H](CCC(N)=O)NC(=O)[C@H](CC(C)C)NC(=O)[C@H](CC(C)C)NC(=O)[C@@H](CCC(N)=O)NC(=O)[C@@H](CC(C)C)NC(=O)[C@@H](C(C)C)NC(=O)[C@H](NC(=O)[C@H](CCC(N)=O)NC(=O)[C@@H](CC(C)C)NC(=O)[C@H](NC(=O)[C@@H](CCC(N)=O)NC(=O)[C@@H](CCC(=O)O)NC(=O)[C@H](CC(C)C)NC(=O)CCC2CCCCC2)C(C)C)COC1=O | 18.7 | – |
| CCCCCCC[C@@H](O)CC(=O)N[C@@H](C)C(=O)N[C@H](CCC(=O)O)C(=O)N[C@H](CCC(N)=O)C(=O)N[C@@H](C(=O)N[C@H](CC(C)C)C(=O)N[C@@H](CCC(N)=O)C(=O)N[C@@H]1COC(=O)[C@H]([C@@H](C)CC)NC(=O)[C@@H](CCC(N)=O)NC(=O)[C@H](CC(C)C)NC(=O)[C@H](CC(C)C)NC(=O)[C@@H](CCC(N)=O)NC(=O)[C@@H](CC(C)C)NC(=O)[C@@H](C(C)C)NC1=O)C(C)C | 31.8 | – |
| CCCCCCCCCC(=O)N[C@@H](CC(C)C)C(=O)N[C@H](CCC(=O)O)C(=O)N[C@H](CCC(N)=O)C(=O)N[C@@H](C(=O)N[C@H](CC(C)C)C(=O)N[C@@H](CCC(N)=O)C(=O)N[C@@H]1COC(=O)[C@H]([C@@H](C)CC)NC(=O)[C@@H](CCC(N)=O)NC(=O)[C@@H](CC(C)C)NC(=O)[C@H](CC(C)C)NC(=O)[C@@H](CCC(N)=O)NC(=O)[C@@H](CC(C)C)NC(=O)[C@@H](C(C)C)NC1=O)C(C)C | -2.3 | – |
| CCCCCCCCCC(=O)N[C@@H](CC(C)C)C(=O)N[C@@H](CCC(=O)O)C(=O)N[C@H](CCC(N)=O)C(=O)N[C@@H](C(=O)N[C@H](CC(C)C)C(=O)N[C@@H](CCC(N)=O)C(=O)N[C@@H]1COC(=O)[C@H]([C@@H](C)CC)NC(=O)[C@@H](CCC(N)=O)NC(=O)[C@H](CC(C)C)NC(=O)[C@H](CC(C)C)NC(=O)[C@@H](CCC(N)=O)NC(=O)[C@@H](CC(C)C)NC(=O)[C@@H](C(C)C)NC1=O)C(C)C | – | 85.4 |
| CCCCCCC[C@@H](O)CC(=O)N[C@@H](CC(C)C)C(=O)N[C@H](CCC(=O)O)C(=O)N[C@H](CCC(N)=O)C(=O)N[C@@H](C(=O)N[C@H](CC(C)C)C(=O)N[C@@H](CCC(N)=O)C(=O)N[C@@H]1COC(=O)[C@H]([C@@H](C)CC)NC(=O)[C@@H](CCC(N)=O)NC(=O)[C@H](CC(C)C)NC(=O)[C@H](CC(C)C)NC(=O)[C@@H](CCC(N)=O)NC(=O)[C@@H](C)NC(=O)[C@@H](C(C)C)NC1=O)C(C)C | 10.9 | – |
| CCCC(=O)N[C@@H](CC(C)C)C(=O)N[C@H](CCC(=O)O)C(=O)N[C@H](CCC(N)=O)C(=O)N[C@@H](C(=O)N[C@H](CC(C)C)C(=O)N[C@@H](CCC(N)=O)C(=O)N[C@@H]1COC(=O)[C@H]([C@@H](C)CC)NC(=O)[C@@H](CCC(N)=O)NC(=O)[C@H](CC(C)C)NC(=O)[C@H](CC(C)C)NC(=O)[C@@H](CCC(N)=O)NC(=O)[C@@H](CC(C)C)NC(=O)[C@@H](C(C)C)NC1=O)C(C)C | -1 | – |
| CCCCCCC[C@@H](O)CC(=O)N[C@@H](CC(C)C)C(=O)N[C@H](CCC(=O)O)C(=O)N[C@H](CCC(N)=O)C(=O)N[C@@H](C(=O)N[C@H](CC(C)C)C(=O)N[C@@H](CCC(N)=O)C(=O)N[C@@H]1COC(=O)[C@H]([C@@H](C)CC)NC(=O)[C@@H](CCC(N)=O)NC(=O)[C@H](CC(C)C)NC(=O)[C@H](C)NC(=O)[C@@H](CCC(N)=O)NC(=O)[C@@H](CC(C)C)NC(=O)[C@@H](C(C)C)NC1=O)C(C)C | 12.7 | – |
| CCCCCCC[C@@H](O)CC(=O)N[C@@H](CC(C)C)C(=O)N[C@H](CCC(=O)O)C(=O)N[C@H](CCC(N)=O)C(=O)N[C@@H](C(=O)N[C@H](CC(C)C)C(=O)N[C@@H](CCC(N)=O)C(=O)N[C@@H]1COC(=O)[C@H]([C@@H](C)CC)NC(=O)[C@@H](CCC(N)=O)NC(=O)[C@H](CC(C)C)NC(=O)[C@H](CC(C)C)NC(=O)[C@@H](CCC(N)=O)NC(=O)[C@@H](CC(C)C)NC(=O)[C@@H](C)NC1=O)C(C)C | 22.3 | – |

Source: ChEMBL document CHEMBL5331117, “X-Ray Conformation and Structure-Activity Relationships of MA026, a Reversible Tight Junction Opener” (J Med Chem, 2023)
